Reference: PMC9558510 (Cancers, 2022)

Assays:
[1] = Logistic regression of dose reduction/discontinuation vs predicted exposure; type: in vivo, human; conditions: for relationship between dose reduction or discontinuation due to AE and predicted serum trough concentrations or AUCτ: logistic regression, standard dosing assumed
Protocol: Data were collected and processed using Microsoft Excel 2016 Version 16.0 (Microsoft Corporation, Redmond, WA, USA). Statistical calculations and visualization of results were performed with R Studio Version 1.2.5042 (RStudio Incorporation, Boston, MA, USA) running R version 4.0.5 (R Foundation for Statistical Computing, Vienna, Austria, 2020). For further analysis, serum concentrations were divided into groups according to time interval post-dose as follows: 0–5 h, 5–10 h, 10–14 h, and >14 h for (hydroxy-)dabrafenib and 0–10 h, 10–20 h, 20–30 h, and >30 h for trametinib. Concentrations < LLOQ were excluded from further statistical analyses. The concentrations of the same patient at the same dosage and within the same post-dose group were summarized into an individual mean serum concentration for descriptive statistical analysis to account for potential bias caused by the unbalanced number of samples per patient. […] The Wilcoxon […] test was used for unpaired samples. The correlations between individual PK parameters sampled from the conditional distribution during the generation of EBE (methods for estimation see below) and age, sex, body mass index (BMI), and co-medication were analyzed using analysis of variance (ANOVA) and Spearman’s correlation coefficient. Logistic regression was used to compare the risk of treatment discontinuations or dose reductions (dabrafenib dose reduction or discontinuation, trametinib dose reduction or discontinuation, or any dose reduction or discontinuation) with the corresponding predicted trough concentrations and area under the curve of a dosing interval (AUCτ) of dabrafenib, hydroxy-dabrafenib, and trametinib as well as with the composite predicted dabrafenib/hydroxy-dabrafenib trough concentration and with composite dabrafenib/hydroxy-dabrafenib AUCτ assuming standard dosing. The Hosmer–Lemeshow test was used to evaluate the goodness of fit for our logistic regression model. Due to the explorative nature of the study, p-values obtained from multiple comparisons were not corrected for multiple testing. A p-value < 0.05 was considered statistically significant.

[2] = design: method as in PMID 24408395; conditions: cited from earlier work
[3] = design: method as in PMID 33846903; conditions: cited from earlier work
[4] = Adverse events (CTCAE v5.0), dose reductions and treatment discontinuations; type: in vivo, human; conditions: for patients with dose reduction of the named drug due to AE during the study period: 27 patients
From the text: AE was routinely assessed by the treating physicians at each serum sampling time point and graded according to the […] (CTCAE) Version 5.0 [35]. Additionally, permanent and temporary treatment discontinuations, dose reductions, and corresponding reasons were documented. Further recorded patient data included age, sex, height, weight, smoking status, dosing regimen, co-medication, and relevant laboratory parameters if ordered by the treating physician (platelet count, white blood cell count, absolute neutrophil count, absolute lymphocyte count, hemoglobin, bilirubin, aspartate and alanine aminotransferase, alkaline phosphatase, gamma-glutamyl transferase, amylase, lipase, creatine kinase, phosphate, sodium, glucose, serum creatinine, and estimated glomerular filtration rate). The treatment and frequency of visits were managed by the treating physicians without knowing the measured drug concentrations. AE was not assessed simultaneously with the collection of VAMS samples.

[5] = design: method as in PMID 32283865; conditions: popPK model population value; cited from earlier work

Compound | relationship between dose reduction or discontinuation due to AE and predicted serum trough concentrations or AUCτ [1] | CYP3A autoinduction: induction half-life [2] | half-life [2] | protein binding [3] [%] | patients with dose reduction of the named drug due to AE during the study period [4] [%] | dose reduction n (%) ([4]; none) | permanent treatment discontinuation n (%) ([4]; none) | temporary treatment discontinuation n (%) ([4]; none) | permanent treatment discontinuation n (%) ([4]; reason: adverse events) | CENT (central compartment) volume [5] [L] | CL/F (oral clearance from central compartment) [5] [L/h] | PER (peripheral compartment) volume [5] [L] | Tlag (lag time before beginning of absorption process) [5] [h] | ka (absorption rate constant) [5] [h⁻¹] | effect of Cmin on probability of dose reduction or treatment discontinuation (logistic regression) ([1]; predicted trough concentration as exposure surrogate, intercept -0.349, p-value 0.0798) | patients who discontinued the named drug(s) permanently due to AE ([4]; both drugs, or only trametinib) [%]
CC(C)(C)c1nc(-c2cccc(NS(=O)(=O)c3c(F)cccc3F)c2F)c(-c2ccnc(N)n2)s1 [dabrafenib] | no significant relationships | approximately 67 h | eight | > 99.5 | 7.4 | 24 (88.9) n (%) | 19 (70.4) n (%) | 17 (63.0) n (%) | 2 (7.4) n (%) | 39.5 | 17.7 | 19.6 | 0.5 | 1.8 |  | 
CC(=O)Nc1cccc(-n2c(=O)n(C3CC3)c(=O)c3c(Nc4ccc(I)cc4F)n(C)c(=O)c(C)c32)c1 [trametinib] | no significant relationships |  |  |  | 3.7 | 21 (77.8) n (%) | 18 (66.7) n (%) | 17 (63.0) n (%) | 3 (11.1) n (%) | 61.9 | 5.83 | 417 | 0.709 | 0.913 | 0.06178 | 3.7
